# Target: T1, monomeric apoA-I (Homo sapiens, UniProt P02647)
# T1 construct: gene APOA1; mature apoA-I residues 3-243 from E. coli BL21(DE3), His tag removed by formic acid at Asp2-Pro3; soluble, lipid-free, monomeric, pH 7
# Assay: WaterLOGSY NMR
# Type: binding
# Settings: 36 μM apoA-I, phosphate buffer pH 7, no heparin
# T1 sequence (P02647 27-267): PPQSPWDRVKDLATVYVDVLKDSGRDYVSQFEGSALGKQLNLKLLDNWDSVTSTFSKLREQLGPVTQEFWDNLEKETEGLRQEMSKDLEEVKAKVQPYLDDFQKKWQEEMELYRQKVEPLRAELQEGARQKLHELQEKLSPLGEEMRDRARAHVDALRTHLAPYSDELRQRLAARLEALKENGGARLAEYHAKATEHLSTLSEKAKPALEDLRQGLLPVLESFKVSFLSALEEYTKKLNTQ
smiles,measurement,value
"O=C(O[C@@H]1Cc2c(O)cc(O)cc2O[C@@H]1c1cc(O)c(O)c(O)c1)c1cc(O)c(O)c(O)c1 [compound 5, EGCG]",WaterLOGSY NMR,peaks from EGCG broaden and take the opposite sign to the TSP peak

# — publication PMC6102129, “Epigallocatechin-3-gallate remodels apolipoprotein A-I amyloid fibrils into soluble oligomers in the presence of heparin” (The Journal of Biological Chemistry, 2018)
